Measurements from BindingDB's records for doi:10.1016/s0014-2999(98)00246-5 (The Royal Danish School of Pharmacy, 1998).

Assays:
[1] = molecular target: Metabotropic glutamate receptor 4 (Rattus norvegicus, UniProt P31423)
[2] = molecular target: Metabotropic glutamate receptor 5 (Rattus norvegicus, UniProt P31424)
[3] = molecular target: Metabotropic glutamate receptor 2 (Homo sapiens, UniProt Q14416)
[4] = molecular target: Metabotropic glutamate receptor 1 (Rattus norvegicus, UniProt P23385)
Sequence of Metabotropic glutamate receptor 1 (P23385 whole entry): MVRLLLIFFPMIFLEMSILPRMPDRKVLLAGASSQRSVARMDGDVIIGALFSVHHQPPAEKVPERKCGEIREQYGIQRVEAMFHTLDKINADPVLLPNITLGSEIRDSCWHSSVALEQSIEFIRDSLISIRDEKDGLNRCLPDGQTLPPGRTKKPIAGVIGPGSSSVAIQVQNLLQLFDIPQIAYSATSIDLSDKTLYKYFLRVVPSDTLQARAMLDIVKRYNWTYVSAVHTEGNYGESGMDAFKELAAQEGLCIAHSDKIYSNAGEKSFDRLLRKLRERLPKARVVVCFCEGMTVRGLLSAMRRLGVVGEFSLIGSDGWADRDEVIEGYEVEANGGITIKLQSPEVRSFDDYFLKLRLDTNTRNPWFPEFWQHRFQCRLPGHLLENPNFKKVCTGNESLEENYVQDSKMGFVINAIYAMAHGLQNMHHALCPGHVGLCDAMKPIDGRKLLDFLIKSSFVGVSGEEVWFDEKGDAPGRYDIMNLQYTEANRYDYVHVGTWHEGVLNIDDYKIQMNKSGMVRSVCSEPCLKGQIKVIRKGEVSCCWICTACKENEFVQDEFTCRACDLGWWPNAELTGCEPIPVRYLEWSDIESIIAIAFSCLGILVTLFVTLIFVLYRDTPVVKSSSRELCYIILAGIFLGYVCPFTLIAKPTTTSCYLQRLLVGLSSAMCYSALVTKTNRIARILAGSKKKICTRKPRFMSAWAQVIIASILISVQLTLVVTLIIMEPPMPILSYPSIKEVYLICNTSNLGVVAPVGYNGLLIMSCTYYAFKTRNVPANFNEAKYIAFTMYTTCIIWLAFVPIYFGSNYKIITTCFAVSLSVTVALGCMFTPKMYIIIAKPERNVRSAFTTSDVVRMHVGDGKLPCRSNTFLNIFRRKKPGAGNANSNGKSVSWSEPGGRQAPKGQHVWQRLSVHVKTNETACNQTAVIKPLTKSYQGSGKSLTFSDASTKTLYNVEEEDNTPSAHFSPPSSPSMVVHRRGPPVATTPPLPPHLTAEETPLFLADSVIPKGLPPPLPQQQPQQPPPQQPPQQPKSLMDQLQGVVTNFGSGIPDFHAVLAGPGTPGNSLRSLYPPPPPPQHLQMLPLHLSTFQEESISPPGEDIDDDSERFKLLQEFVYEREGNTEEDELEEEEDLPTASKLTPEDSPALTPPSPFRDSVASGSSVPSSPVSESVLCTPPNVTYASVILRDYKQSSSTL

Measured: Ki

Sequence of Metabotropic glutamate receptor 5 (P31424 whole entry): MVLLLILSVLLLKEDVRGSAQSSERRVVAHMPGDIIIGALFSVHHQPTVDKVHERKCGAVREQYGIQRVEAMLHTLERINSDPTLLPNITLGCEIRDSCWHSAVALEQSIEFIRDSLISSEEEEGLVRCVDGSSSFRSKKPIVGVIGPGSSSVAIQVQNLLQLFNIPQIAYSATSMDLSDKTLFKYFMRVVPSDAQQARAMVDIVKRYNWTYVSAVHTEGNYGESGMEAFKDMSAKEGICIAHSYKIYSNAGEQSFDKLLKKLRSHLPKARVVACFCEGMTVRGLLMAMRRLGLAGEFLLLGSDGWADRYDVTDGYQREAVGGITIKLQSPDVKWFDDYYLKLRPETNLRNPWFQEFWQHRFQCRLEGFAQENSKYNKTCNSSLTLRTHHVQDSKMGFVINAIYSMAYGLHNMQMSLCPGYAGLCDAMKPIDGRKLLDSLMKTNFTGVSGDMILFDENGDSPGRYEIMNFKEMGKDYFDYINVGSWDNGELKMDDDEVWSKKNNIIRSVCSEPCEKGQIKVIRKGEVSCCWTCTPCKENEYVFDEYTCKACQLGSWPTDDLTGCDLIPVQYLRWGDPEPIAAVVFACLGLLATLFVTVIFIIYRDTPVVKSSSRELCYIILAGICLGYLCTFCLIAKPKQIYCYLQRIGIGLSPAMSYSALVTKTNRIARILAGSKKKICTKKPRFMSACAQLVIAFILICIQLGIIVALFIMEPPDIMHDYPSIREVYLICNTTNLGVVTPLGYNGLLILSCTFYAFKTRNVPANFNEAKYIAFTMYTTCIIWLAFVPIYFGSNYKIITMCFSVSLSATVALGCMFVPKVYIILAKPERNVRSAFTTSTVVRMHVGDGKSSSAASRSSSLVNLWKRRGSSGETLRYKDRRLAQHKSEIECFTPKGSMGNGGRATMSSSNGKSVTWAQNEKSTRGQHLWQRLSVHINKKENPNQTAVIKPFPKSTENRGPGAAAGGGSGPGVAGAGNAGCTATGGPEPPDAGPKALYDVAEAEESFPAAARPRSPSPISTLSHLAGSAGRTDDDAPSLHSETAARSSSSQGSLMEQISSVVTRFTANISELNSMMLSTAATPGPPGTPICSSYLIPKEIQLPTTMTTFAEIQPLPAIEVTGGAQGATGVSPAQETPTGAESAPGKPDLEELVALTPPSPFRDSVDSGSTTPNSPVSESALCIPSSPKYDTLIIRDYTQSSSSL
Sequence of Metabotropic glutamate receptor 2 (Q14416 whole entry): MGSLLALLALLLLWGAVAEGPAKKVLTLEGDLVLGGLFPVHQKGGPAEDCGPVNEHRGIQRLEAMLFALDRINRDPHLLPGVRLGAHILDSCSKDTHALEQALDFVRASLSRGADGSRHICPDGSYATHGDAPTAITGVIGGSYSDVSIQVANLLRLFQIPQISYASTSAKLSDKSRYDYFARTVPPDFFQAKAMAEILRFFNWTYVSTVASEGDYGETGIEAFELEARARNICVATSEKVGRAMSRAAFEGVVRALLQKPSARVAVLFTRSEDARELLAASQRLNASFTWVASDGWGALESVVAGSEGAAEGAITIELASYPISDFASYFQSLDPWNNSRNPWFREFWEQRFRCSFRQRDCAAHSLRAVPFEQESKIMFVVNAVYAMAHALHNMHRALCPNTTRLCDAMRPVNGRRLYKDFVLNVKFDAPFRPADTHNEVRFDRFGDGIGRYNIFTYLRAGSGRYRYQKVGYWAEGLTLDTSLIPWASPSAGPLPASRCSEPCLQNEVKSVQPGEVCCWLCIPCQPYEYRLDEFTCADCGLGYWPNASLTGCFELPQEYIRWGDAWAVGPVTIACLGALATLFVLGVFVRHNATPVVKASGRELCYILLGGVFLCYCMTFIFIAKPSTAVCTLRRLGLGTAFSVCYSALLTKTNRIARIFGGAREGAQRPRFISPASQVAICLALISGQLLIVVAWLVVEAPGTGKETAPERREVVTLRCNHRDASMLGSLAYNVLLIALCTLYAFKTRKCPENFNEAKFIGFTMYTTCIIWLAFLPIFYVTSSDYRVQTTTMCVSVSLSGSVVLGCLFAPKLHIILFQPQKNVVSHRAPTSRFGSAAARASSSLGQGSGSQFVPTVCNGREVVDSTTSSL
Sequence of Metabotropic glutamate receptor 4 (P31423 whole entry): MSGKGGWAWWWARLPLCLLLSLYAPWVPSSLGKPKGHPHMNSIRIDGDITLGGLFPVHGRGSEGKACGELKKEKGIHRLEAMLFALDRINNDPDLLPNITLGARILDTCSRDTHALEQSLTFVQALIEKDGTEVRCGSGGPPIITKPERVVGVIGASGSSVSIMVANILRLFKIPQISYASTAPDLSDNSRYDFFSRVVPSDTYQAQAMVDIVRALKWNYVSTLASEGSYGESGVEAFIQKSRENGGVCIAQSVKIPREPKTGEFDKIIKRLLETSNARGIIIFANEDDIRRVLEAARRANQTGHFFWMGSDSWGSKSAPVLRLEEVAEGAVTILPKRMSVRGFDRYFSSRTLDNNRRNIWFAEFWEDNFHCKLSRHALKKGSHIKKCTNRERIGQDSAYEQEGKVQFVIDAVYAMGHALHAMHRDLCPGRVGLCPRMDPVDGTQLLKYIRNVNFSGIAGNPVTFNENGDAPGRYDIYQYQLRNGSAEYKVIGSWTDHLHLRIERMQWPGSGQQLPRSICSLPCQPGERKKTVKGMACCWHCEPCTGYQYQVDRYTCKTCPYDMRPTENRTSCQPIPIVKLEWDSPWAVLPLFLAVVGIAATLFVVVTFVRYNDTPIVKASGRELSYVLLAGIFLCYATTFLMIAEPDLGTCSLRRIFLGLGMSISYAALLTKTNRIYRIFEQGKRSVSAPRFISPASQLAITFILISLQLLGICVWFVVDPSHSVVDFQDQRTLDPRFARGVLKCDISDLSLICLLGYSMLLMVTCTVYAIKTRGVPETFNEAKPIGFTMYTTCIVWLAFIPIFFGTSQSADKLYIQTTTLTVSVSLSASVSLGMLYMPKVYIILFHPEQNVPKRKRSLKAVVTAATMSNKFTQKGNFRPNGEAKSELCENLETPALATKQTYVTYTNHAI

N[C@@H](CCC(=O)O)C(=O)O [L-Glutamic acid]
> 10 µM: [1]

CCCCc1c(C[C@H](N)C(=O)O)o[nH]c1=O [(R)-Bu-HIBO]
> 10 µM: [2] | [1] | [3] | [4]

N[C@H](Cc1onc(O)c1Br)C(=O)O [NSC_2733518]
> 10 µM: [2] | [1] | [3] | [4]

Cc1c(C[C@@H](N)C(=O)O)o[nH]c1=O [(S)-4-Methylhomoibotenic acid]
> 10 µM: [2] | [1] | [3] | [4]

Cc1c(C[C@H](N)C(=O)O)o[nH]c1=O [(2S)-2-amino-3-(3-hydroxy-4-methyl-1,2-oxazol-5-yl)propanoic acid]
> 10 µM: [2] | [1] | [3]

N[C@@H](Cc1o[nH]c(=O)c1Br)C(=O)O [NSC_2733518]
> 10 µM: [2] | [1] | [3] | [4]

N[C@H](CCCC(=O)O)C(=O)O [CAS_542-32-5]
> 10 µM: [2] | [1] | [3] | [4]

CCCCc1c(O)noc1C[C@@H](N)C(=O)O [CAS_77006-30-5]
> 10 µM: [2] | [1] | [3] | [4]

N[C@H](Cc1cc(=O)[nH]o1)C(=O)O [CAS_194385]
> 10 µM: [2] | [1] | [3] | [4]

NC(C(=O)O)c1cc(=O)[nH]o1 (stereo unspecified) [Amino-(3-hydroxy-isoxazol-5-yl)-acetic acid(Ibotenic acid)]
> 10 µM: [2] | [1] | [4]

N[C@@H](Cc1cc(=O)[nH]o1)C(=O)O [CAS_194385]
> 10 µM: [2] | [1] | [3] | [4]

N[C@H](C(=O)O)c1ccc(C(=O)O)cc1 [4-((S)-Amino-carboxy-methyl)-benzoic acid]
> 10 µM: [2] | [4]
